Source: ChEMBL document CHEMBL4000200, “Structure-activity relationships of 4-hydroxy-4-biaryl-proline acylsulfonamide tripeptides: A series of potent NS3 protease inhibitors for the treatment of hepatitis C virus” (Bioorg Med Chem Lett, 2017)

Columns and labels:
[1] = system: Hepatitis C virus; assay: Antiviral activity against HCV genotype 1b by cell based replicon assay; assay type: functional, Hepacivirus hominis
[2] = Inhibition of HCV genotype 1a NS3/4A protease; parameters: species or system Hepatitis C virus subtype 1a
[3] = Drug uptake in id dosed rat liver after 4 hrs; assay type: ADME, organism-based; conditions: read-out: Drug uptake
[4] = Drug uptake in rat liver at 15 mg/kg, po after 24 hrs; assay type: ADME, organism-based; conditions: read-out: Drug uptake
[5] = Permeability of the compound at pH 7.4 by PAMPA; assay type: physicochemical; conditions: read-out: permeability
[6] = system: Heart; assay: Cardiotoxicity in Langendorff perfused rabbit heart assessed as heart rate at 10 uM perfused for 20 mins (reference value: -3 +/- 3%); assay type: toxicity, tissue-based, Oryctolagus cuniculus
[7] = Clearance in rat at 5 mg/kg, iv; assay type: ADME, organism-based; conditions: in vivo
[8] = Half life in rat at 5 mg/kg, iv; assay type: ADME, organism-based; conditions: in vivo
[9] = system: Heart; assay: Cardiotoxicity in Langendorff perfused rabbit heart assessed as sinoatrial node recovery time at 10 uM perfused for 10 mins (reference value: 3 +/- 1%); assay type: toxicity, tissue-based, Oryctolagus cuniculus
[10] = system: Heart; assay: Cardiotoxicity in Langendorff perfused rabbit heart assessed as heart rate at 10 uM perfused for 10 mins (reference value: -1 +/- 1%); assay type: toxicity, tissue-based, Oryctolagus cuniculus
[11] = Permeability of the compound at pH 5.5 by PAMPA; assay type: physicochemical; conditions: read-out: permeability
[12] = system: Heart; assay: Cardiotoxicity in Langendorff perfused rabbit heart assessed as coronary flow at 10 uM perfused for 10 mins (reference value: -4 +/- 6%); assay type: toxicity, tissue-based, Oryctolagus cuniculus
[13] = AUC in id dosed rat plasma after 4 hrs; assay type: ADME, organism-based; parameters: time < 4 hr
[14] = system: Heart; assay: Cardiotoxicity in Langendorff perfused rabbit heart assessed as coronary flow at 10 uM perfused for 20 mins (reference value: -6 +/- 8%); assay type: toxicity, tissue-based, Oryctolagus cuniculus
[15] = AUC in rat at 15 mg/kg, po after 24 hrs; assay type: ADME, organism-based; parameters: dose 15 mg/kg, time < 24 hr, route oral; conditions: in vivo
[16] = Oral bioavailability in rat at 15 mg/kg after 24 hrs; assay type: ADME, organism-based; conditions: in vivo
[17] = system: Heart; assay: Cardiotoxicity in Langendorff perfused rabbit heart assessed as sinoatrial node recovery time at 10 uM perfused for 20 mins (reference value: 4 +/- 5%); assay type: toxicity, tissue-based, Oryctolagus cuniculus

| EC50 [1] | IC50 [2] | SMILES | also measured |
| --- | --- | --- | --- |
| 3700 nM | 52 nM | C=C[C@@H]1C[C@]1(NC(=O)[C@@H]1C[C@@](O)(c2cccc(OC)c2)CN1C(=O)[C@@H](NC(=O)OC(C)(C)C)C(C)(C)C)C(=O)NS(=O)(=O)C1CC1 | – |
| 6450 nM | 80 nM | C=C[C@@H]1C[C@]1(NC(=O)[C@@H]1C[C@@](O)(c2cc(C)cc(C)c2)CN1C(=O)[C@@H](NC(=O)OC(C)(C)C)C(C)(C)C)C(=O)NS(=O)(=O)C1CC1 | – |
| 39 nM | 2 nM | C=C[C@@H]1C[C@]1(NC(=O)[C@@H]1C[C@@](O)(c2ccc(-c3ccccn3)cc2)CN1C(=O)[C@@H](NC(=O)OC(C)(C)C)C(C)(C)C)C(=O)NS(=O)(=O)C1CC1 | – |
| 3270 nM | 76 nM | C=C[C@@H]1C[C@]1(NC(=O)[C@@H]1C[C@@](O)(c2cccc(C)c2)CN1C(=O)[C@@H](NC(=O)OC(C)(C)C)C(C)(C)C)C(=O)NS(=O)(=O)C1CC1 | – |
| 7700 nM | 134 nM | C=C[C@@H]1C[C@]1(NC(=O)[C@@H]1C[C@@](O)(c2ccc(F)c(C)c2)CN1C(=O)[C@@H](NC(=O)OC(C)(C)C)C(C)(C)C)C(=O)NS(=O)(=O)C1CC1 | – |
| 2360 nM | 140 nM | C=C[C@@H]1C[C@]1(NC(=O)[C@@H]1C[C@@](O)(c2ccccc2)CN1C(=O)[C@@H](NC(=O)OC(C)(C)C)C(C)(C)C)C(=O)NS(=O)(=O)C1CC1 | – |
| 9 nM | 2 nM | C=C[C@@H]1C[C@]1(NC(=O)[C@@H]1C[C@@](OC)(c2ccc(-c3ccccc3)cc2)CN1C(=O)[C@@H](NC(=O)OC(C)(C)C)C(C)(C)C)C(=O)NS(=O)(=O)C1CC1 | concentration at 4 h [3]: 195000 ng/g; concentration at 24 h [4]: 1100 nM; Papp [5]: 43.8 ×10⁻⁶ cm/s; Activity [6]: -3%; clearance [7]: 17.8 mL/min/kg; half-life [8]: 4.6 h; Activity [9]: 8%; Activity [10]: -6%; Papp [11]: 38.1 ×10⁻⁶ cm/s; Activity [12]: 27%; AUC at 4 h [13]: 2.45 µM·h; Activity [14]: 20%; AUC at 24 h [15]: 14.1 µM·h; bioavailability [16]: 58%; Activity [17]: 7% |
| 412 nM | 26 nM | C=C[C@@H]1C[C@]1(NC(=O)[C@@H]1C[C@@](O)(c2ccc3ccccc3c2)CN1C(=O)[C@@H](NC(=O)OC(C)(C)C)C(C)(C)C)C(=O)NS(=O)(=O)C1CC1 | – |
| 265 nM | 50 nM | C=C[C@@H]1C[C@]1(NC(=O)[C@@H]1C[C@@](O)(c2ccc(Oc3ccccc3)cc2)CN1C(=O)[C@@H](NC(=O)OC(C)(C)C)C(C)(C)C)C(=O)NS(=O)(=O)C1CC1 | – |
| 3460 nM | 162 nM | C=C[C@@H]1C[C@]1(NC(=O)[C@@H]1C[C@@](O)(c2cccc(CN3CCOCC3)c2)CN1C(=O)[C@@H](NC(=O)OC(C)(C)C)C(C)(C)C)C(=O)NS(=O)(=O)C1CC1 | – |
| 4240 nM | 568 nM | C=C[C@@H]1C[C@]1(NC(=O)[C@@H]1C[C@@](O)(c2ccc(C)c(F)c2)CN1C(=O)[C@@H](NC(=O)OC(C)(C)C)C(C)(C)C)C(=O)NS(=O)(=O)C1CC1 | – |
| 24 nM | 5 nM | C=C[C@@H]1C[C@]1(NC(=O)[C@@H]1C[C@@](O)(c2ccc(-c3ccccc3OC)cc2)CN1C(=O)[C@@H](NC(=O)OC(C)(C)C)C(C)(C)C)C(=O)NS(=O)(=O)C1CC1 | – |
| 41 nM | 2 nM | C=C[C@@H]1C[C@]1(NC(=O)[C@@H]1C[C@@](O)(c2ccc(-c3nccs3)cc2)CN1C(=O)[C@@H](NC(=O)OC(C)(C)C)C(C)(C)C)C(=O)NS(=O)(=O)C1CC1 | – |
| 6250 nM | 101 nM | C=C[C@@H]1C[C@]1(NC(=O)[C@@H]1C[C@@](O)(c2cccc(OC(C)C)c2)CN1C(=O)[C@@H](NC(=O)OC(C)(C)C)C(C)(C)C)C(=O)NS(=O)(=O)C1CC1 | – |
| 3660 nM | 80 nM | C=C[C@@H]1C[C@]1(NC(=O)[C@@H]1C[C@@](O)(c2cccc(Cl)c2)CN1C(=O)[C@@H](NC(=O)OC(C)(C)C)C(C)(C)C)C(=O)NS(=O)(=O)C1CC1 | – |
| 3400 nM | 960 nM | C=C[C@@H]1C[C@]1(NC(=O)[C@@H]1C[C@@](O)(c2cccc(N(C)C)c2)CN1C(=O)[C@@H](NC(=O)OC(C)(C)C)C(C)(C)C)C(=O)NS(=O)(=O)C1CC1 | – |

| EC50 [1] | IC50 [2] | SMILES | also measured |
| --- | --- | --- | --- |
| 70700 nM | 3900 nM | C=C[C@@H]1C[C@]1(NC(=O)[C@@H]1CC(=O)CN1C(=O)[C@@H](NC(=O)OC(C)(C)C)C(C)(C)C)C(=O)NS(=O)(=O)C1CC1 | – |
| – | 1 to 2 nM | C=C[C@@H]1C[C@]1(NC(=O)[C@@H]1C[C@@H](Oc2nccc3cc(OC)ccc23)CN1C(=O)[C@@H](NC(=O)OC(C)(C)C)C(C)(C)C)C(=O)NS(=O)(=O)C1CC1 | concentration at 4 h [3]: 64700 ng/g; Papp [5]: 17.8 ×10⁻⁶ cm/s; Activity [6]: -32%; Activity [9]: 69%; Activity [10]: -13%; Papp [11]: 57.4 ×10⁻⁶ cm/s; Activity [12]: 12%; AUC at 4 h [13]: 10.4 µM·h; Activity [14]: 10%; Activity [17]: 360% |
| 4950 nM | 291 nM | C=C[C@@H]1C[C@]1(NC(=O)[C@@H]1C[C@@](O)(c2ccccc2CN2CCOCC2)CN1C(=O)[C@@H](NC(=O)OC(C)(C)C)C(C)(C)C)C(=O)NS(=O)(=O)C1CC1 | – |
| 30500 nM | 1500 nM | C=CC[C@]1(O)C[C@@H](C(=O)N[C@]2(C(=O)NS(=O)(=O)C3CC3)C[C@H]2C=C)N(C(=O)[C@@H](NC(=O)OC(C)(C)C)C(C)(C)C)C1 | – |
| 2470 nM | 190 nM | C=C[C@@H]1C[C@]1(NC(=O)[C@@H]1C[C@@](O)(c2ccc(F)cc2)CN1C(=O)[C@@H](NC(=O)OC(C)(C)C)C(C)(C)C)C(=O)NS(=O)(=O)C1CC1 | – |
| 2310 nM | 136 nM | C=C[C@@H]1C[C@]1(NC(=O)[C@@H]1C[C@@](O)(c2cc(C)ccc2C)CN1C(=O)[C@@H](NC(=O)OC(C)(C)C)C(C)(C)C)C(=O)NS(=O)(=O)C1CC1 | – |
| 1470 nM | 105 nM | C=C[C@@H]1C[C@]1(NC(=O)[C@@H]1C[C@@](O)(c2ccc(OC)cc2)CN1C(=O)[C@@H](NC(=O)OC(C)(C)C)C(C)(C)C)C(=O)NS(=O)(=O)C1CC1 | – |
| – | – | C=C[C@@H]1C[C@]1(NC(=O)[C@@H]1C[C@@H](Oc2ncc(OC)c3ccc(Cl)cc23)CN1C(=O)[C@@H](NC(=O)OC(C)(C)C)C(C)(C)C)C(=O)NS(=O)(=O)C1CC1 | Activity [6]: -1%; Activity [9]: -1%; Activity [10]: 1%; Activity [12]: -3%; Activity [14]: -1%; Activity [17]: 4% |
| 97 nM | 7 nM | C=C[C@@H]1C[C@]1(NC(=O)[C@@H]1C[C@@](O)(c2ccc(-n3cccc3)cc2)CN1C(=O)[C@@H](NC(=O)OC(C)(C)C)C(C)(C)C)C(=O)NS(=O)(=O)C1CC1 | – |
| 22 to 26 nM | 4 nM | C=C[C@@H]1C[C@]1(NC(=O)[C@@H]1C[C@@](O)(c2ccc(-c3ccccc3)cc2)CN1C(=O)[C@@H](NC(=O)OC(C)(C)C)C(C)(C)C)C(=O)NS(=O)(=O)C1CC1 | concentration at 4 h [3]: 128 ng/g; Papp [5]: 21.1 ×10⁻⁶ cm/s; Activity [6]: -4%; Activity [9]: 2%; Activity [10]: -2%; Papp [11]: 7.9 ×10⁻⁶ cm/s; Activity [12]: 2%; AUC at 4 h [13]: 0.9 µM·h; Activity [14]: -2%; Activity [17]: 7% |
| 3940 nM | 728 nM | C=C[C@@H]1C[C@]1(NC(=O)[C@@H]1C[C@@](O)(c2cc(F)ccc2OC)CN1C(=O)[C@@H](NC(=O)OC(C)(C)C)C(C)(C)C)C(=O)NS(=O)(=O)C1CC1 | – |
| 3210 nM | 620 nM | C=C[C@@H]1C[C@]1(NC(=O)[C@@H]1C[C@@](O)(c2cccc(-c3ccc(OC)cc3)c2)CN1C(=O)[C@@H](NC(=O)OC(C)(C)C)C(C)(C)C)C(=O)NS(=O)(=O)C1CC1 | – |
| 8370 nM | 703 nM | C=C[C@@H]1C[C@]1(NC(=O)[C@@H]1C[C@@](O)(c2cccc(C(C)C)c2)CN1C(=O)[C@@H](NC(=O)OC(C)(C)C)C(C)(C)C)C(=O)NS(=O)(=O)C1CC1 | – |
| 4060 nM | 57 nM | C=C[C@@H]1C[C@]1(NC(=O)[C@@H]1C[C@@](O)(c2cccc(F)c2)CN1C(=O)[C@@H](NC(=O)OC(C)(C)C)C(C)(C)C)C(=O)NS(=O)(=O)C1CC1 | – |
| 1120 nM | 127 nM | C=C[C@@H]1C[C@]1(NC(=O)[C@@H]1C[C@@](O)(c2nc3ccccc3s2)CN1C(=O)[C@@H](NC(=O)OC(C)(C)C)C(C)(C)C)C(=O)NS(=O)(=O)C1CC1 | – |
